Structures can show the parent of a compound that is named as a salt.
Experiments:
[1] = Pharmacokinetics of dry powder administered subcutaneously via dorsal incision (Example 5); format: in vivo, Sprague Dawley rats; details: dry powder 230, via dorsal incision, bupivacaine salt 149 vs lidocaine salt 226 mg/kg
Protocol: Terminal collections were performed via vena cava.
The test articles were drug compositions designated as Test Articles A and B, which were administered as a single subcutaneous dose via dorsal incision to female CD (Sprague Dawley) rats.
(§1) Ten (10) female, jugular vein catheterized (JVC) CD rats initially were assigned to two dose groups consisting of five animals per group.
(§2) Each test article was provided as a powder in an individual vial.

[2] = system: female CD (Sprague Dawley) rats; details: rat, in vivo
Protocol: Clinical observations were performed daily.
as §1, §2

[3] = system: female Sprague Dawley (CD) rats; details: rat, in vivo, sc
Protocol: (§3) Clinical observations were performed daily. […] Other characteristics observed included appearance of skin and fur, appearance of eyes and mucous membranes, urine and fecal output, and changes in locomotor behavior. The times of observation were approximately the same each day, and the date of each observation was recorded.
Animals were euthanized at the end of the study via carbon dioxide inhalation (CO2) followed by thoracotomy. Gross necropsy of the dose sites were performed and they were collected for histopathology. Photographs were taken for any observation of tissue or reaction to treatment. Carcasses were discarded without further examination.
Twenty (20) female, jugular vein catheterized (JVC) Sprague Dawley (CD) rats initially were assigned to four dose groups consisting of eight (Test Articles A and B) or two (Test Articles B and C) animals per group. The animals received a single subcutaneous dose of the test article delivered to the dorsal subcutaneum of the animals via a dorsal skin incision.
Test articles were provided as a powder in individual vials (Test Articles A and B), or as a solution (Test Articles C and D). On the day of testing, each animal's dose was individually calculated, weighed or measured, and recorded. […]

[4] = system: female Sprague-Dawley rats; details: rat, in vivo, sc
Protocol: as §3
The vehicle was a hyaluronic acid vehicle. The animals received a single subcutaneous dose of the test article or vehicle delivered to the dorsal area of the animals.
In addition, dose sites were exposed for gross evaluation of residual test articles and local response to the injected materials.

Row | SMILES | Cmax compared to the lidocaine particles [1] | duration of release compared to the lidocaine particles ([1]; listed as bupivacaine particles) | duration of release compared to the lidocaine particles ([1]; listed as bupivaciane particles) | tolerability of single subcutaneous dose administered through a dorsal incision [2] | vascularization surrounding the incision sites on the subcutaneous skin layers [3] | clinical observations [4]
1 | CCCCN1CCCCC1C(=O)Nc1c(C)cccc1C (stereo not drawn) [Test Article B, Bupivacaine tridecafluorohexane-sulfonate salt 230] | lower | longer | significantly longer | – | – | –
2 | CCN(CC)CC(=O)Nc1c(C)cccc1C.O=S(=O)(O)C(F)(F)C(F)(F)C(F)(F)C(F)(F)C(F)(F)C(F)(F)C(F)(F)C(F)(F)F [Test Article B] | – | – | – | tolerated | slight to moderate | slightly dehydrated and hypoactive

From patent US20200323833A1, “HYDROPHOBIC ACID ADDITION SALTS” (Theracaine LLC, priority 2017, published 2020)
